Reference: patent US20250171434A1, “SEC61 INHIBITORS AND USE THEREOF” (KEZAR LIFE SCIENCES, INC., priority 2022, published 2025)
Like-named read-outs stand apart in the source and are kept apart here.

Assays:
[1] = tested on: PD1-ss+10aa/Gaussia Luciferase; test: Dox-Induced PD1-ss-Gluc Assay; type: cell-based
Procedure, shortened: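 Flp-In 293 T-REx cells stably carrying a doxycycline-inducible Gaussia luciferase fused to the PD1 signal sequence plus 10 aa were plated the day before. Compound dilutions in DMSO/media containing doxycycline were then added and incubated at 37 °C, 5% CO2. Data for undefined stereochemistry refer to stereoisomer mixtures.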

[2] = tested on: IL-2-FL/Gaussia Luciferase; test: Dox Inducible IL2-FL-Gluc Assay; type: cell-based
Procedure, shortened: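 Reporter is Gaussia luciferase fused to the 3′ end of full-length IL-2 (aa 1-153), expressed from a doxycycline-inducible T-REx construct in stably selected Flp-In 293 cells. Compounds were co-added with doxycycline and incubated at 37° C, 5% CO2.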

[3] = tested on: HER3-ss+4aa/Gaussia Luciferase; test: Dox-Inducible Her3-ss-Gluc Assay; type: cell-based
Description: Flp-In 293 T-REx™ cells were transfected with pcDNA™5/FRT/TO plasmid inserted with cDNA encoding Gaussia Luciferase fused to the 3′ end of cDNA encoding HER3 signal sequence plus 4 amino acids (N-[…]-C) (SEQ ID NO: 2). Transfected cells were selected for resistance to the selectable markers Hygromycin and Blasticidin to create a stable cell line that contained the HER3-ss+4aa/Gaussia Luciferase cDNA insert whose expression was regulated under the T-REx™ system. The day before assay, cells were trypsinized and plated in 384-well tissue culture plates. The next day, compound dilutions in DMSO/media containing doxycycline were added to the wells and incubated at 37° C., 5% CO2.
(§1) For chemical structures that include one or more stereoisomers, but are illustrated without indicating stereochemistry, the assay data refers to a mixture of stereoisomers.

[4] = tested on: TNFα-FL/Gaussia Luciferase; test: Dox Induced TNFα-FL-Gluc Assay; type: cell-based
Description: Flp-In 293 T-REx™ cells were transfected with pcDNA™5/FRT/TO plasmid inserted with cDNA encoding Gaussia Luciferase fused to the 3′ end of cDNA encoding full length TNFα (amino acids 1-233). Transfected cells were selected for resistance to the selectable markers Hygromycin and Blasticidin to create a stable cell line that contained the TNFα-FL/Gaussia Luciferase cDNA insert whose expression was regulated under the T-REx™ system. The day before assay, cells were trypsinized and plated in 384-well tissue culture plates. The next day, compound dilutions in DMSO/media containing doxycycline were added to the wells and incubated at 37° C., 5% CO2.
as §1

[5] = tested on: multiple myeloma cell line NCI-H929; test: H929 Cell Viability Assay; type: cell-based, human; conditions: Homo sapiens
Procedure, shortened: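 Plate the myeloma cells in RPMI 1640 with 10% FBS, add serially diluted compound, incubate for 48 hours at 37° C, then add CellTiter-Glo and read luciferase signal.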

[6] = tested on: multiple myeloma cell line U266B1; test: U266 Cell Viability Assay; type: cell-based; conditions: Homo sapiens
Procedure, shortened: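 48 h treatment, 37° C./5% CO2, RPMI 1640 + 10% FBS; viability by CellTiter-Glo luminescence.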

[7] = Liver Microsome Stability Assay, mouse; type: in vitro ADME; conditions: mouse liver microsomes 1.0 mg/mL, 1.0 uM compound, 37° C., 1 mM NADPH
Procedure, shortened: (§2)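 Each species' liver microsomes at 1.0 mg/mL received 1.0 uM compound in 0.1 M potassium phosphate with 0.4% DMSO. Reactions proceeded at 37° C in the presence or absence of 1 mM NADPH. Quenching followed at 0 and 30 minutes.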

[8] = Liver Microsome Stability Assay, rat; type: in vitro ADME; conditions: rat liver microsomes 1.0 mg/mL, 1.0 uM compound, 37° C., 1 mM NADPH
Procedure, shortened: as §2

[9] = Liver Microsome Stability Assay, monkey; type: in vitro ADME; conditions: monkey liver microsomes 1.0 mg/mL, 1.0 uM compound, 37° C., 1 mM NADPH
Procedure, shortened: as §2

[10] = Liver Microsome Stability Assay, human; type: in vitro ADME; conditions: human liver microsomes 1.0 mg/mL, 1.0 uM compound, 37° C., 1 mM NADPH
Procedure, shortened: as §2

[11] = ratio of IC50s IL2/PD1; Table 3
[12] = ratio of IC50s TNF/PD1; Table 3

Row | SMILES | IC50 ([1]; Flp-In 293 T-REx cells, 24 hours with doxycycline; Table 3; read-out: 24 hr Dox Inducible PD1ssGluc 293FRT/TO: Mean IC50) [µM] | IC50 ([2]; Flp-In 293 T-REx cells, 24 hours with doxycycline; Table 3; read-out: 24 hr Dox Inducible IL2FLGluc 293FRT/TO: Mean IC50) [µM] | 24 hr Dox Inducible IL2FLGluc 293FRT/TO: IL2/PD1 [2, 11] | IC50 ([3]; Flp-In 293 T-REx cells, 24 hours with doxycycline; Table 3; read-out: 24 hr Dox Inducible Her3(ss + 4)Gluc 293FRT/TO: Mean IC50) [µM] | IC50 ([4]; Flp-In 293 T-REx cells, 24 hours with doxycycline; Table 3; read-out: 24 hr Dox Inducible TNFaFLGluc 293FRT/TO: Mean IC50) [µM] | 24 hr Dox Inducible TNFaFLGluc 293FRT/TO: TNF/PD1 [4, 12] | EC50 ([5]; NCI-H929 cells, 48 hours, Celltiter-Glo, read-out: 48 hr H929 Viability Celltiter-Glo: Mean EC50) [nM] | EC50 ([6]; U-266, U266B1 cells, 48 hours, Celltiter-Glo, read-out: 48 hr U266 Viability Celltiter-Glo: Mean EC50) [nM] | Liver Microsome Stability (Multiple Species): Mouse - % Remaining after 30 min w/ NADPH (%) [7] [%] | Liver Microsome Stability (Multiple Species): Rat - % Remaining after 30 min w/ NADPH (%) [8] [%] | Liver Microsome Stability (Multiple Species): Monkey - % Remaining after 30 min w/ NADPH (%) [9] [%] | Liver Microsome Stability (Multiple Species): Human - % Remaining after 30 min w/ NADPH (%) [10] [%] | IC50 ([1]; read-out: 24 hr Dox Inducible PD1ssGluc 293FRT/TO: Mean IC50; Flp-In 293 T-REx cells, 24 hours with doxycycline; Table 3) [µM] | IC50 ([2]; read-out: 24 hr Dox Inducible IL2FLGluc 293FRT/TO: Mean IC50; Flp-In 293 T-REx cells, 24 hours with doxycycline; Table 3) [µM] | IC50 ([3]; read-out: 24 hr Dox Inducible Her3(ss + 4)Gluc 293FRT/TO: Mean IC50; Flp-In 293 T-REx cells, 24 hours with doxycycline; Table 3) [µM] | IC50 ([4]; read-out: 24 hr Dox Inducible TNFaFLGluc 293FRT/TO: Mean IC50; Flp-In 293 T-REx cells, 24 hours with doxycycline; Table 3) [µM] | EC50 ([5]; NCI-H929, 48 h, read-out: 48 hr H929 Viability Celltiter-Glo: Mean EC50 (nM)) [nM] | EC50 ([6]; U-266, 48 h, read-out: 48 hr U266 Viability Celltiter-Glo: Mean EC50 (nM)) [nM]
1 | O=C1CCn2cc(/C=C/c3csc(NC(=O)c4cccn4Cc4ccnc(F)c4)n3)nc2N1 [Compound B3, (E)-1-((2-fluoropyridin-4-yl)methyl)-N-(4-(2-(7-oxo-5,6,7,8-tetrahydroimidazo[1,2-a]pyrimidin-2-yl)vinyl)thiazol-2-yl)-1H-pyrrole-2-carboxamide] | 0.644 | > 25 | >39 | > 25 | > 25 | >38 | > 25000 | > 25000 | 53 | 19 | 1 | <1 | – | – | – | – | – | –
2 | O=C(Nc1nc(/C=C/c2ncoc2CO)cs1)c1cccn1Cc1ccnc(F)c1 [Compound B1, (E)-1-((2-fluoropyridin-4-yl)methyl)-N-(4-(2-(5-(hydroxymethyl)oxazol-4-yl)vinyl)thiazol-2-yl)-1H-pyrrole-2-carboxamide] | – | – | >2.8 | – | – | >2 | – | – | 29 | 3 | 2 | 10 | 8.93 | > 25 | > 25 | > 25 | > 25000 | > 25000
